18 molecules from patent US20240366581A1 (Hoffmann-La Roche Inc., priority 2022, published 2024) can be followed below.

Where a name gives a salt, the structure may show the parent alone. Bounds are passed on as bounds.

Format in all cases: biochemical
In one test the target is SIK2 (Homo sapiens (Human), UniProt Q9H0K1). In words: SIK2 enzymatic activity assay, RapidFire mass spectrometry (CHK-peptide phosphorylation). Conditions: 0.5 nM SIK2, CHK-peptide, ATP, 30 min pre-incubation, 45 min reaction, RapidFire MS; read-out: SIK2 RF IC50. The protocol: (§1) In the presence of SIK2 (resp. SIK1 or SIK3) and ATP the CHK-peptide ([…] with C-terminal arginine amide modification) were phosphorylated at one of the four feasible serine's. Only one phosphorylation is observed under the assay conditions. 60 nl of each compound dilution series (12 point; dilution factor 3, generally 30 μM to 170 pM) in DMSO were transferred by acoustic dispensing to the assay plate and 30 min pre-incubated (ambient temperature) after the addition of 5 μl SIK1 (5 nM) resp. 5 μl SIK2 (0.5 nM) or 7 μl SIK3 (1.5 nM) in assay-buffer (12.5 mM HEPES (pH 7.0), 10 mM magnesium acetate, 0.005% BSA). 10 μM CHK-peptide solution and 5 μl 100 μM ATP for SIK1 & SIK2 resp. 3 μl for SIK3 in assay-buffer were added and incubated ambient for 45 min. 40 μl 0.125% formic acid in water were added to quench the reaction. RapidFire (RF) Mass Spectrometry was utilized for data generation as described below. The multiple charged species (3-5 charges) for the phosphorylated and non-phosphorylated form measured by MRM (Multiple Reaction Monitoring; API5000 or 6500+) or EIC (Extracted Ion Current; QToF) were summed up and the ratio calculated (sum phosphorylated species/sum all species) for data evaluation. Normalization was performed by Genedata software based on the non-inhibition control DMSO and the commercially available SIK inhibitor @ 1 μM YKL-05-099 (CAS number 1936529-65-5). The results of the assay are expressed in half-maximal inhibitory concentrations (IC50s) and are summarized below in Table 1.
Sequence of SIK2 (Q9H0K1 whole entry): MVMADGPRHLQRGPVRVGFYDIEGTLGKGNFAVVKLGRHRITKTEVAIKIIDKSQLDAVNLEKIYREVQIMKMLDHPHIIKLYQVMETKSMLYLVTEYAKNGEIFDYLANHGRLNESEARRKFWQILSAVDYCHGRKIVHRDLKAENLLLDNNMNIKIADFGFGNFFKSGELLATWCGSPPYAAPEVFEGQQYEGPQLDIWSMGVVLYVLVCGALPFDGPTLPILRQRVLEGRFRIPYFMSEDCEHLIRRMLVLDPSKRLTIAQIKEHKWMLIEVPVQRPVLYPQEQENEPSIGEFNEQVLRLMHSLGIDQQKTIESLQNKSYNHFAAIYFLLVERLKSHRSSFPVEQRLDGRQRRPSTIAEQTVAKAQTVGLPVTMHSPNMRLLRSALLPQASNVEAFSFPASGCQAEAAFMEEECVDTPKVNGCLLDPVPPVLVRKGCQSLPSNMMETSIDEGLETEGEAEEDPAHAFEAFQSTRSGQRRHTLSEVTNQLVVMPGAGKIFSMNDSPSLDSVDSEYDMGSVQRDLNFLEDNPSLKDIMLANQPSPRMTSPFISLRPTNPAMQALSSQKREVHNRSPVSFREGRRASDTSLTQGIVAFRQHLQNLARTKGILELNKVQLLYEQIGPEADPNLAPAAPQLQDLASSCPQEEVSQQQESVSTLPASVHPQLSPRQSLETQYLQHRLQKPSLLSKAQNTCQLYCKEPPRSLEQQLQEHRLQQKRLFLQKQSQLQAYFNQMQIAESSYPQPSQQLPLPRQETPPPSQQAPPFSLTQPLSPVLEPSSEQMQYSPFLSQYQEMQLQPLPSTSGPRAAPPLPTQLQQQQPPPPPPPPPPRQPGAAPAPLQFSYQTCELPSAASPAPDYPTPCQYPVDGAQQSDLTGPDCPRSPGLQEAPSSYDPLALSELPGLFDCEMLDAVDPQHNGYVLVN
(§2) Samples were aspirated by vacuum for max. 600 ms and loaded to C4-cartridge (Agilent; #G9203A) for 3000 ms@1.5 ml/min with 0.1% formic acid in water. Afterwards samples were transferred to the API5000 (API6500+) or QToF mass spectrometer for 4000 ms@1.25 ml/min with 90% acetonitrile; 10% water; 0.007% TFA; 0.093 formic acid. The cartridge was reconditioned for additional 500 ms with 0.1% formic acid in water
(§3) All MS analyses using the following MS-setup in MRM mode: Electrospray positive; Ion Spray Voltage: 4000V; Temperature: 550° C.; Collision Gas: 5; Curtain Gas: 15; Gas1: 40; Gas 2: 42; EP: 10
(§4) All MS analyses using the following MS-setup in Mode MS: Dual AJS Electrospray positive; VCap: 3000V; Drying & Sheath gas: 340° C.@81/min; Nebulizer: 60 psig; Nozzle Voltage: 2000V; Fragmentor: 130V; Skimmer: 35V; Oct1 RF Vpp: 700V; Ref masses on@5spectra/s

A further test has as its target SIK3 (Homo sapiens (Human), UniProt Q9Y2K2). The experiment in a line: SIK3 enzymatic activity assay, RapidFire mass spectrometry (CHK-peptide phosphorylation). Conditions: 1.5 nM SIK3, CHK-peptide, ATP, 30 min pre-incubation, 45 min reaction, RapidFire MS; read-out: SIK3 RF IC50. As to the method:
as §1, §2, §3, §4

The next test deals with SIK1 (Homo sapiens (Human), UniProt P57059). In words: SIK1 enzymatic activity assay, RapidFire mass spectrometry (CHK-peptide phosphorylation). Conditions: 5 nM SIK1, CHK-peptide, ATP, 30 min pre-incubation, 45 min reaction, RapidFire MS; read-out: SIK1 RF IC50. As to the method: as §1, §2, §3, §4
Sequence of SIK1 (P57059 whole entry): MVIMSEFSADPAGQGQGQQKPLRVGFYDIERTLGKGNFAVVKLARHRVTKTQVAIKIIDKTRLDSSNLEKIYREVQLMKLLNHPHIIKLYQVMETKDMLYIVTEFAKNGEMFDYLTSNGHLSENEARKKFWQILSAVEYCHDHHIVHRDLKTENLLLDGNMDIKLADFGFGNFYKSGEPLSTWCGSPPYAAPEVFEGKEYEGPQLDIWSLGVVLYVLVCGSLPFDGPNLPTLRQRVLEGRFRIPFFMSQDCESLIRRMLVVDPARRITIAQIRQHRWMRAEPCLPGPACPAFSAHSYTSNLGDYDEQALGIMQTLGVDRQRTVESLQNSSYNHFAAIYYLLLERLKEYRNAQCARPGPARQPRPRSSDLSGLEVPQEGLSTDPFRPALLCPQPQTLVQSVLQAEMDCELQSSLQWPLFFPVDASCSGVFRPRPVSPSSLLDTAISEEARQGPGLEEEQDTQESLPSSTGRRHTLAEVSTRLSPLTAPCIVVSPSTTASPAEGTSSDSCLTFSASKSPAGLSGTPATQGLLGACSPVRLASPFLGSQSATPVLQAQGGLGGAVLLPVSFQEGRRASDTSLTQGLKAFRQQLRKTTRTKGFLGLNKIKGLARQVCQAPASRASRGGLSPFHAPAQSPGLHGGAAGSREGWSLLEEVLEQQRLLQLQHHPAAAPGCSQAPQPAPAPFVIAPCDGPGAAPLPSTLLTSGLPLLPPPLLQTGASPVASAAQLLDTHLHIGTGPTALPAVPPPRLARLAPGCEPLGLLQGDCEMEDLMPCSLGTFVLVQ

Sequence of SIK3 (Q9Y2K2 whole entry): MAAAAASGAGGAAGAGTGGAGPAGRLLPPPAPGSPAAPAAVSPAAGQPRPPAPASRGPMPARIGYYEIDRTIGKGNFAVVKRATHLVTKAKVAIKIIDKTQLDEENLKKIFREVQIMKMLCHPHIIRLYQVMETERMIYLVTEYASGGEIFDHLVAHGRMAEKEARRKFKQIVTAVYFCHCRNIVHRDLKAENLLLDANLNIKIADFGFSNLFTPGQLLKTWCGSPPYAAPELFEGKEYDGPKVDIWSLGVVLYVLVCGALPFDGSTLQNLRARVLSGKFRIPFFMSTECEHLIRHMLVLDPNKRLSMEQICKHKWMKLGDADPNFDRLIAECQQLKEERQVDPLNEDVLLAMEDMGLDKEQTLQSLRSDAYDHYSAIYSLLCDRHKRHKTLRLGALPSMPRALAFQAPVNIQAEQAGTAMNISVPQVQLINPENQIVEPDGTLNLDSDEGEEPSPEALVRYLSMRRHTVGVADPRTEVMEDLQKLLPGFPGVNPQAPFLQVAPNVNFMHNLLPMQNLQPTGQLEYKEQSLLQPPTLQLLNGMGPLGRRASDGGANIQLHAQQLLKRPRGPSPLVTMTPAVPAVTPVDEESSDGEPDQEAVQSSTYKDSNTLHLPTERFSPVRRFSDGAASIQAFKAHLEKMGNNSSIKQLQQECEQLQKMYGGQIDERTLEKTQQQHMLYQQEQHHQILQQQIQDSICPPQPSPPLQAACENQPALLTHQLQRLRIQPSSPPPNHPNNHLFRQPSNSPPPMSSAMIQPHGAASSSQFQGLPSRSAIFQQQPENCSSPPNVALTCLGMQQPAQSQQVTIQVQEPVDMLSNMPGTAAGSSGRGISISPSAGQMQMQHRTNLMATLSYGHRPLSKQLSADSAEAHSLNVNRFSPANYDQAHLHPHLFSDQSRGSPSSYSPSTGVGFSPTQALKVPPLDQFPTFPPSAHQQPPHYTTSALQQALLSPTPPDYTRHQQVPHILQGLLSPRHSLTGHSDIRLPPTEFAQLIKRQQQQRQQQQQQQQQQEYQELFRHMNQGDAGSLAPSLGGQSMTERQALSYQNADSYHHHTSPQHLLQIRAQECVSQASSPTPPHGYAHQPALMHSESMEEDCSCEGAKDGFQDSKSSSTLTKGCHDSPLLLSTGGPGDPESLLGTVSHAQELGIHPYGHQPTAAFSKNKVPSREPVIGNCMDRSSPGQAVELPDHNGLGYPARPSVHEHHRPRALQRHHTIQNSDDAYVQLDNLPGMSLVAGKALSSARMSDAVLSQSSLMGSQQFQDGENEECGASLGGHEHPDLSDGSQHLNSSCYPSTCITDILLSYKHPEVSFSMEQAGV

Consider `COc1cc2ncn(-c3ccc(C(N)=O)c(NCc4cccs4)n3)c2cc1OC` [Example 7, 6-(5,6-dimethoxybenzimidazol-1-yl)-2-(2-thienylmethylamino)pyridine-3-carboxamide], for which the IC50 – broadly, the concentration that gives 50% inhibition – at SIK2 was 18.2 nM; on SIK3, 188 nM; on SIK1 it was 29.7 nM.

In the case of `COc1cc2ncn(-c3ccc(C(N)=O)c(NCCc4cccc(Cl)c4)n3)c2cc1OC` [Example 9, 2-[2-(3-chlorophenyl)ethylamino]-6-(5,6-dimethoxybenzimidazol-1-yl)pyridine-3-carboxamide], the 50% inhibitory concentration (IC50) is 6.5 nM on SIK2, 146 nM on SIK3 and 6.2 nM on SIK1.

Take `Cc1ccc(Nc2ccc3ncn(-c4ccc(C=O)c(N5C[C@H](C#N)C[C@@H]5C)n4)c3c2)nn1` [Example 32, (3R,5S)-1-[3-formyl-6-[6-[(6-methylpyridazin-3-yl)amino]benzimidazol-1-yl]-2-pyridyl]-5-methyl-pyrrolidine-3-carbonitrile]: the IC50 on SIK2 was determined as 19.9 nM; at SIK3 it was 988 nM; at SIK1, 43 nM.

Take `COc1nn(C)cc1-c1ccc2c(c1)ncn2-c1ccc(C(C)=O)c(-n2nc(C#N)cc2C)n1` [Example 38, 1-[3-acetyl-6-[5-(3-methoxy-1-methyl-pyrazol-4-yl)benzimidazol-1-yl]-2-pyridyl]-5-methyl-pyrazole-3-carbonitrile]: the IC50 is 754 nM at SIK2, 1790 nM at SIK3 and 3490 nM at SIK1.

As to `Cc1ccc(Nc2ccc3c(c2)ncn3-c2ccc(C=O)c(-n3nc(C#N)cc3C)n2)nn1` [Example 36, 1-[3-formyl-6-[5-[(6-methylpyridazin-3-yl)amino]benzimidazol-1-yl]-2-pyridyl]-5-methyl-pyrazole-3-carbonitrile], the figures for the IC50 on SIK2, on SIK3 and on SIK1 were 5.2 nM, 0.7 nM and 274 nM, respectively.

With `COc1cc2ncn(-c3ccc(C(N)=O)c(NCc4ccccc4)n3)c2cc1OC` [Example 3, 2-(benzylamino)-6-(5,6-dimethoxybenzimidazol-1-yl)pyridine-3-carboxamide], the IC50 was 7.8 nM on SIK2, 156 nM on SIK3 and 15.5 nM on SIK1.

On to `COC(=O)c1ccc(-n2cnc3cc(OC)c(OC)cc32)nc1N1CCCCC1=O` [Example 14, Methyl 6-(5,6-dimethoxy-1H-benzo[d]imidazol-1-yl)-2-(2-oxopiperidin-1-yl)nicotinate], for which the IC50 was 5150 nM on SIK2, 18000 nM on SIK3 and 7480 nM on SIK1.

With `COc1cc2ncn(-c3ccc(C(N)=O)c(-c4cccc(C#N)c4)n3)c2cc1OC` [Example 21, 2-(3-Cyanophenyl)-6-(5,6-dimethoxybenzimidazol-1-yl)pyridine-3-carboxamide], the IC50 at SIK2 is 878 nM; on SIK3, 3500 nM; on SIK1, 659 nM.

On to `Cc1ccc(Nc2ccc3c(c2)ncn3-c2ccc(C=O)c(N3C[C@H](C#N)C[C@@H]3C)n2)nn1` [Example 33, (3R,5S)-1-[3-formyl-6-[5-[(6-methylpyridazin-3-yl)amino]benzimidazol-1-yl]-2-pyridyl]-5-methyl-pyrrolidine-3-carbonitrile], for which the IC50 is 95.1 nM at SIK2, 562 nM at SIK3 and 76 nM at SIK1.

`Cc1ccc(Nc2ccc3ncn(-c4ccc(C(N)=O)c(OC(C)C(F)F)n4)c3c2)nn1` (stereo not drawn) [Example 24]: the IC50 on SIK2 came to 206 nM; on SIK3 it was 95.7 nM; at SIK1 it was 605 nM.

With `Cc1cc(C#N)nn1-c1nc(-n2cnc3cc(N[C@H]4CNC[C@H]4F)ccc32)ccc1C(N)=O` [Example 25, 2-(3-Cyano-5-methyl-pyrazol-1-yl)-6-[5-[[(3S,4R)-4-fluoropyrrolidin-3-yl]amino]benzimidazol-1-yl]pyridine-3-carboxamide; formic acid], the IC50 on SIK2 was determined as 171 nM; on SIK3 it was 257 nM; on SIK1, 914 nM.

As for `COc1cc2ncn(-c3ccc(C(N)=O)c(NC(CCN)c4ccccc4)n3)c2cc1OC` (stereo not drawn) [Example 5, 2-[(3-amino-1-phenyl-propyl)amino]-6-(5,6-dimethoxybenzimidazol-1-yl)pyridine-3-carboxamide hydrochloride], the concentration for half-maximal inhibition (IC50) at SIK2 came out at 9.5 nM; on SIK3, 331 nM; at SIK1 it was 7.4 nM.

For `COc1cc2ncn(-c3ccc(C(=O)NC4CC4)c(-c4cccc(C#N)c4)n3)c2cc1OC` [Example 19, 2-(3-Cyanophenyl)-N-cyclopropyl-6-(5,6-dimethoxybenzimidazol-1-yl)pyridine-3-carboxamide], the values for the IC50 at SIK2, on SIK3 and on SIK1 were 5740 nM, over 10000 nM and 1770 nM, respectively.

Regarding `COC(=O)c1ccc(-n2cnc3cc(OC)c(OC)cc32)nc1-c1cccc(Cl)c1` [Example 13, Methyl 2-(3-chlorophenyl)-6-(5,6-dimethoxy-1H-benzo[d]imidazol-1-yl)nicotinate], the IC50 on SIK2 is 995 nM; at SIK3 it was over 30000 nM; on SIK1, 22500 nM.

With `COC(=O)c1ccc(-n2cnc3cc(Nc4ccc(C)nn4)ccc32)nc1-n1nc(OC)cc1C` [Example 26, Methyl 2-(3-methoxy-5-methyl-pyrazol-1-yl)-6-[5-[(6-methylpyridazin-3-yl)amino]benzimidazol-1-yl]pyridine-3-carboxylate], the IC50 on SIK2 came out at 154 nM; at SIK3, 49.4 nM; on SIK1, 17800 nM.

For `CC(=O)c1ccc(-n2cnc3cc4c(cc32)CCN4)nc1-n1nc(C#N)cc1C` [Example 31, 1-[3-acetyl-6-(6,7-dihydro-5H-pyrrolo[2,3-f]benzimidazol-1-yl)-2-pyridyl]-5-methyl-pyrazole-3-carbonitrile], the IC50 at SIK2 stood at 9.1 nM; at SIK3, 1230 nM; on SIK1, 13 nM.

On to `CC(=O)c1ccc(-n2cnc3cc4c(cc32)C(C)(C)C(=O)N4c2ccc(C)nn2)nc1-n1nc(C#N)cc1C` [Example 35, 1-[3-acetyl-6-[6-keto-7,7-dimethyl-5-(6-methylpyridazin-3-yl)pyrrolo[2,3-f]benzimidazol-1-yl]-2-pyridyl]-5-methyl-pyrazole-3-carbonitrile], for which the figures for the IC50 on SIK2, at SIK3 and at SIK1 were 115 nM, 150 nM and 101 nM, respectively.

Regarding `CC(=O)c1ccc(-n2cnc3cc(Nc4cccn(C)c4=O)ccc32)nc1-n1nc(C#N)cc1C` [Example 37, 1-[3-acetyl-6-[5-[(2-keto-1-methyl-3-pyridyl)amino]benzimidazol-1-yl]-2-pyridyl]-5-methyl-pyrazole-3-carbonitrile], the IC50 at SIK2 was 502 nM; on SIK3, 208 nM; on SIK1, over 10000 nM.
